In patent US12077503B2, “Substituted cyclic amides and their use as herbicides” (FMC CORPORATION, priority 2015, dated 2024):

Experiments:
Assay type in all cases: in vivo
corn (Zea mays) = assay: Test A postemergence; details: Zea mays, post-emergence, 240 h
Summary of the method: (§1)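 Visual injury, scored on a 0–100 scale relative to untreated controls, was recorded about 10 d after application. Treatments were a preemergence soil spray over planted seeds or a postemergence spray on plants at the one- to two-leaf stage, 2 to 10 cm tall, all in loam soil–sand blend in the greenhouse.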

Kochia (Kochia scoparia) [1] = assay: Test A postemergence; details: Bassia scoparia, post-emergence, 240 h, Postemergence, 31 g ai/ha; visual injury after approx. 10 d; 0 to 100 scale, 0 no effect, 100 complete control; read-out: Plant response rating, Kochia
Summary of the method: as §1

[2] = tested on: wheat (Triticum aestivum); assay: Test A postemergence; details: Triticum aestivum, post-emergence, 240 h
Summary of the method: as §1

[3] = tested on: blackgrass (Alopecurus myosuroides); assay: Test A postemergence; details: Alopecurus myosuroides, post-emergence, 240 h
Summary of the method: as §1

[4] = tested on: giant foxtail (Setaria faberii); assay: Test A postemergence; details: Setaria faberi, post-emergence, 240 h
Summary of the method: as §1

[5] = tested on: pigweed (Amaranthus retroflexus); assay: Test A postemergence; details: Amaranthus retroflexus, post-emergence, 240 h
Summary of the method: as §1

[6] = tested on: Galium (catchweed bedstraw, Galium aparine); assay: Test A postemergence; details: Galium, post-emergence, 240 h
Summary of the method: as §1

[7] = tested on: ryegrass, Italian (Italian ryegrass, Lolium multiflorum); assay: Test A postemergence; details: Lolium multiflorum, post-emergence, 240 h
Summary of the method: as §1

[8] = tested on: barnyardgrass (Echinochloa crus-galli); assay: Test A postemergence; details: Echinochloa crus-galli, post-emergence, 240 h
Summary of the method: as §1

[9] = tested on: ragweed (common ragweed, Ambrosia elatior); assay: Test A postemergence; details: Ambrosia artemisiifolia, post-emergence, 240 h
Summary of the method: as §1

Kochia (Kochia scoparia) [10] = assay: Test A preemergence; details: Bassia scoparia, pre-emergence, 240 h, 31 g ai/ha, Preemergence; 0 to 100 scale where 0 is no effect and 100 is complete control; read-out: Kochia plant response rating
Summary of the method: as §1

[11] = tested on: giant foxtail (Setaria faberii); assay: Test A preemergence; details: Setaria faberi, pre-emergence, 240 h, 0 to 100 scale where 0 is no effect and 100 is complete control, read-out: Foxtail, Giant plant response rating
Summary of the method: as §1

[12] = tested on: pigweed (Amaranthus retroflexus); assay: Test A preemergence; details: Amaranthus retroflexus, pre-emergence, 240 h, 0 to 100 scale where 0 is no effect and 100 is complete control, read-out: Pigweed plant response rating
[13] = tested on: ryegrass, Italian (Italian ryegrass, Lolium multiflorum); assay: Test A preemergence; details: Lolium multiflorum, pre-emergence, 240 h, 0 to 100 scale where 0 is no effect and 100 is complete control, read-out: Ryegrass, Italian plant response rating
Summary of the method: as §1

[14] = tested on: barnyardgrass (Echinochloa crus-galli); assay: Test A preemergence; details: Echinochloa crus-galli, pre-emergence, 240 h, 0 to 100 scale where 0 is no effect and 100 is complete control, read-out: Barnyardgrass plant response rating
Summary of the method: as §1

[15] = tested on: ragweed (common ragweed, Ambrosia elatior); assay: Test A preemergence; details: Ambrosia artemisiifolia, pre-emergence, 240 h, 0 to 100 scale where 0 is no effect and 100 is complete control, read-out: Ragweed plant response rating
Summary of the method: as §1

[16] = tested on: ducksalad (Heteranthera limosa); assay: Test B flooded paddy test; details: Heteranthera limosa, 250 g ai/ha, Flood; 0 to 100 scale where 0 is no effect and 100 is complete control; read-out: Ducksalad plant response rating
Summary of the method: (§2)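 Percent control, visually estimated after 13–15 d in the greenhouse on a 0–100 basis, compares treated pots with untreated ones; compound was put into paddy water 3 cm above the soil when plants had two leaves.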

rice (Oryra sativa) = assay: Test B flooded paddy test; details: Oryza sativa, 250 g ai/ha, Flood; 0 to 100 scale where 0 is no effect and 100 is complete control; read-out: Rice plant response rating
Summary of the method: as §2

[17] = tested on: barnyardgrass (Echinochloa crus-galli); assay: Test B flooded paddy test; details: Echinochloa crus-galli, 250 g ai/ha, Flood; 0 to 100 scale where 0 is no effect and 100 is complete control; read-out: Barnyardgrass plant response rating
Summary of the method: as §2

[18] = tested on: sedge, umbrella (small-flower umbrella sedge, Cyperus difformis); assay: Test B flooded paddy test; details: Cyperus difformis, 250 g ai/ha, Flood; 0 to 100 scale where 0 is no effect and 100 is complete control; read-out: Sedge, Umbrella plant response rating
Summary of the method: as §2

[19] = 125 g ai/ha, preemergence, approx. 10 d

Cc1cc([C@H]2CN(C)C(=O)[C@@H]2C(=O)Nc2ccccc2C(F)(F)F)ccc1Br [Compound 1103]
plant injury at 125 g/ha (corn (Zea mays); 125 g ai/ha, postemergence, visual injury on 0 to 100 scale (0 no effect, 100 complete control), approx. 10 d, read-out: Corn plant response rating): 0% | Corn plant response rating (crop injury, 0 = no effect, 100 = complete kill) at 31 g/ha (corn (Zea mays); Postemergence, 31 g ai/ha, visual injury after approx. 10 d, 0 to 100 scale, 0 no effect, 100 complete control): 0% | pest or weed control at 31 g/ha (Kochia (Kochia scoparia) [1]): 0% | plant injury at 125 g/ha ([2]; 125 g ai/ha, postemergence, visual injury on 0 to 100 scale (0 no effect, 100 complete control), approx. 10 d, read-out: Wheat plant response rating): 20% | plant injury at 31 g/ha ([2]; Postemergence, 31 g ai/ha, visual injury after approx. 10 d, 0 to 100 scale, 0 no effect, 100 complete control, read-out: Plant response rating, Wheat): 0% | pest or weed control at 125 g/ha ([3]; 125 g ai/ha, postemergence, visual injury on 0 to 100 scale (0 no effect, 100 complete control), approx. 10 d, read-out: Blackgrass plant response rating): 30% | pest or weed control at 31 g/ha ([3]; Postemergence, 31 g ai/ha, visual injury after approx. 10 d, 0 to 100 scale, 0 no effect, 100 complete control, read-out: Plant response rating, Blackgrass): 20% | pest or weed control at 125 g/ha ([4]; 125 g ai/ha, postemergence, visual injury on 0 to 100 scale (0 no effect, 100 complete control), approx. 10 d, read-out: Foxtail, Giant plant response rating): 80% | pest or weed control at 31 g/ha ([4]; Postemergence, 31 g ai/ha, visual injury after approx. 10 d, 0 to 100 scale, 0 no effect, 100 complete control, read-out: Plant response rating, Foxtail, Giant): 50% | pest or weed control at 125 g/ha ([5]; 125 g ai/ha, postemergence, visual injury on 0 to 100 scale (0 no effect, 100 complete control), approx. 10 d, read-out: Pigweed plant response rating): 0% | pest or weed control at 31 g/ha ([5]; Postemergence, 31 g ai/ha, visual injury after approx. 10 d, 0 to 100 scale, 0 no effect, 100 complete control, read-out: Plant response rating, Pigweed): 0% | pest or weed control at 125 g/ha ([6]; 125 g ai/ha, postemergence, visual injury on 0 to 100 scale (0 no effect, 100 complete control), approx. 10 d, read-out: Galium plant response rating): 50% | pest or weed control at 31 g/ha ([6]; Postemergence, 31 g ai/ha, visual injury after approx. 10 d, 0 to 100 scale, 0 no effect, 100 complete control, read-out: Plant response rating, Galium): 30% | pest or weed control at 125 g/ha ([7]; 125 g ai/ha, postemergence, visual injury on 0 to 100 scale (0 no effect, 100 complete control), approx. 10 d, read-out: Ryegrass, Italian plant response rating): 20% | pest or weed control at 31 g/ha ([7]; Postemergence, 31 g ai/ha, visual injury after approx. 10 d, 0 to 100 scale, 0 no effect, 100 complete control, read-out: Plant response rating, Ryegrass, Italian): 0% | pest or weed control at 125 g/ha ([8]; 125 g ai/ha, postemergence, visual injury on 0 to 100 scale (0 no effect, 100 complete control), approx. 10 d, read-out: Barnyardgrass plant response rating): 70% | pest or weed control at 31 g/ha ([8]; Postemergence, 31 g ai/ha, visual injury after approx. 10 d, 0 to 100 scale, 0 no effect, 100 complete control, read-out: Plant response rating, Barnyardgrass): 40% | pest or weed control at 125 g/ha ([9]; 125 g ai/ha, postemergence, visual injury on 0 to 100 scale (0 no effect, 100 complete control), approx. 10 d, read-out: Ragweed plant response rating): 30% | pest or weed control at 31 g/ha ([9]; Postemergence, 31 g ai/ha, visual injury after approx. 10 d, 0 to 100 scale, 0 no effect, 100 complete control, read-out: Plant response rating, Ragweed): 0% | pest or weed control at 31 g/ha (Kochia (Kochia scoparia) [10]): 0% | pest or weed control at 31 g/ha ([11]; 31 g ai/ha, Preemergence): 70% | pest or weed control at 125 g/ha [11, 19]: 90% | pest or weed control at 31 g/ha ([12]; 31 g ai/ha, Preemergence): 0% | pest or weed control at 125 g/ha [12, 19]: 0% | pest or weed control at 31 g/ha ([13]; 31 g ai/ha, Preemergence): 0% | pest or weed control at 125 g/ha [13, 19]: 0% | pest or weed control at 31 g/ha ([14]; 31 g ai/ha, Preemergence): 20% | pest or weed control at 125 g/ha [14, 19]: 70% | pest or weed control at 31 g/ha ([15]; 31 g ai/ha, Preemergence): 0% | pest or weed control at 125 g/ha [15, 19]: 20% | pest or weed control at 250 g/ha [16]: 90% | pest or weed control at 250 g/ha (rice (Oryra sativa)): 25% | pest or weed control at 250 g/ha [17]: 75% | pest or weed control at 250 g/ha [18]: 0%
